Source: BindingDB's records for doi:10.1021/jm0600390 (Mcgill University Health Center/Royal Victoria Hospital, 2006)

Experiment: Inhibition of serum-stimulated proliferation of mouse ERBB2 transfected NIH3T3 cell line after 24 hrs

IC50 [nM] | SMILES
2100 | Cc1cccc(Nc2ncnc3ccc(NC(=O)NCCCl)cc23)c1 [1-(2-chloroethyl)-3-{[4-(3-methylphenyl)amino]quinazolin-6-yl}urea]
12200 | Cc1cccc(Nc2ncnc3ccc(NC(=O)N(CCCl)N=O)cc23)c1 [1-(2-Chloroethyl)-1-nitroso-3-{[4-(3-methylphenyl)amino]quinazolin-6-yl}urea]
6390 | Cc1cccc(Nc2ncnc3ccc(N)cc23)c1 [N4-(3-methylphenyl)-4,6-quinazolinediamine]
890 | CNc1ccc2ncnc(Nc3cccc(Cl)c3)c2c1 [4-[(3-chlorophenyl)amino]-6-(methylamino)quinazoline]
680 | CN(C(=O)N(CCCl)N=O)c1ccc2ncnc(Nc3cccc(Cl)c3)c2c1 [1-(2-chloroethyl)-1-nitroso-3-methyl-3-{[4-(3-chloro-phenyl)amino]quinazolin-6-yl}urea]
670 | Nc1ccc2ncnc(Nc3cccc(Br)c3)c2c1
3290 | Nc1ccc2ncnc(Nc3cccc(Cl)c3)c2c1
170 | CNc1ccc2ncnc(Nc3cccc(Br)c3)c2c1 [4-N-(3-bromophenyl)-6-N-methylquinazoline-4,6-diamine]
1150 | O=NN(CCCl)C(=O)Nc1ccc2ncnc(Nc3cccc(Br)c3)c2c1 [1-(2-chloroethyl)-1-nitroso-3-{[4-(3-bromophenyl)amino]quinazolin-6-yl}urea]
1770 | O=C(NCCCl)Nc1ccc2ncnc(Nc3cccc(Br)c3)c2c1 [1-(2-chloroethyl)-3-{[4-(3-bromophenyl)amino]quinazolin-6-yl}urea]
1350 | O=C(NCCCl)Nc1ccc2ncnc(Nc3cccc(Cl)c3)c2c1 [1-(2-chloroethyl)-3-{[4-(3-chlorophenyl)amino]quinazolin-6-yl}urea]
5400 | O=NN(CCCl)C(=O)Nc1ccc2ncnc(Nc3cccc(Cl)c3)c2c1 [1-(2-Chloroethyl)-1-nitroso-3-{[4-(3-chlorophenyl)amino]quinazolin-6-yl}urea]
3060 | CN(C(=O)N(CCCl)N=O)c1ccc2ncnc(Nc3cccc(Br)c3)c2c1 [1-(2-chloroethyl)-1-nitroso-3-methyl-3-{[4-(3-bromophenyl)amino]quinazolin-6-yl}urea]
2070 | CNc1ccc2ncnc(Nc3cccc(C)c3)c2c1 [4-[(3-methylphenyl)amino]-6-(methylamino)quinazoline]

SMILES | IC50 [nM]
Cc1cccc(Nc2ncnc3ccc(N(C)C(=O)N(CCCl)N=O)cc23)c1 [1-(2-chloroethyl)-1-nitroso-3-methyl-3-{[4-(3-methylphenyl)amino]quinazolin-6-yl}urea] | 6880
